# Results published in article PMC5218480 (PLoS ONE, 2017).
# Test system: MV-4-11 cells
# Test: Gene expression microarray analysis (Affymetrix PrimeView) and GSEA
# Type: cell-based, human
# Parameters: RFU PODN (11730768_x_at) / Fold change /veh PODN (11730768_x_at) / RFU LINC00158 (11744669_a_at) / Fold change /veh LINC00158 (11744669_a_at) / RFU DUSP10 (11751237_a_at) / Fold change /veh DUSP10 (11751237_a_at) / RFU ID3 (11757404_x_at) / Fold change /veh ID3 (11757404_x_at) / RFU PLEKHG5 (11737974_s_at) / Fold change /veh PLEKHG5 (11737974_s_at) / RFU LRRC4B (11730491_at) / Fold change /veh LRRC4B (11730491_at) / RFU GIMAP4 (11747438_a_at) / Fold change /veh GIMAP4 (11747438_a_at) / RFU KRT8 (11758183_x_at) / Fold change /veh KRT8 (11758183_x_at) / RFU CNN1 (11734310_a_at) / Fold change /veh CNN1 (11734310_a_at) / RFU VPS37D (11726825_at) / Fold change /veh VPS37D (11726825_at) / RFU C10orf10 (11716522_x_at) / Fold change /veh C10orf10 (11716522_x_at) / RFU KIR2DL2 /// KIR2DL4 /// KIR2DL5A /// KIR2DL5B /// KIR2DS1 /// KIR2DS2 /// KIR2DS3 /// KIR2DS4 /// KIR3DL3 /// KIR3DL3 /// KIR3DS1 (11738374_at) / Fold change /veh KIR2DL2 /// KIR2DL4 /// KIR2DL5A /// KIR2DL5B /// KIR2DS1 /// KIR2DS2 /// KIR2DS3 /// KIR2DS4 /// KIR3DL3 /// KIR3DL3 /// KIR3DS1 (11738374_at) / RFU C1QL1 (11718748_at) / Fold change /veh C1QL1 (11718748_at) / RFU TMPRSS4 (11747572_a_at) / Fold change /veh TMPRSS4 (11747572_a_at) / RFU HAMP (11756126_x_at) / Fold change /veh HAMP (11756126_x_at) / RFU RNFT2 (11725882_a_at) / Fold change /veh RNFT2 (11725882_a_at) / RFU NR4A2 (11747474_a_at) / Fold change /veh NR4A2 (11747474_a_at) / RFU ABCC12 (11746883_a_at) / Fold change /veh ABCC12 (11746883_a_at) / RFU TMEM136 (11760407_x_at) / Fold change /veh TMEM136 (11760407_x_at) / RFU CLDN22 /// WWC2 (11732394_at) / Fold change /veh CLDN22 /// WWC2 (11732394_at) / RFU HLA-DPB1 (11760878_x_at) / Fold change /veh HLA-DPB1 (11760878_x_at) / RFU SPINT1 (11716480_a_at) / Fold change /veh SPINT1 (11716480_a_at) / RFU GAP43 (11754022_s_at) / Fold change /veh GAP43 (11754022_s_at) / RFU A4GNT (11735810_at) / Fold change /veh A4GNT (11735810_at) / RFU PRB3 (11715151_x_at) / Fold change /veh PRB3 (11715151_x_at) / RFU TUBB4B (11761932_at) / Fold change /veh TUBB4B (11761932_at) / RFU CAPN14 (11732068_a_at) / Fold change /veh CAPN14 (11732068_a_at) / RFU TMCC2 (11721928_a_at) / Fold change /veh TMCC2 (11721928_a_at) / RFU IRGQ (11745062_a_at) / Fold change /veh IRGQ (11745062_a_at) / RFU FAM174B (11720279_a_at) / Fold change /veh FAM174B (11720279_a_at) / RFU TMPRSS4 (11748680_a_at) / Fold change /veh TMPRSS4 (11748680_a_at) / RFU FAM212B (11763350_a_at) / Fold change /veh FAM212B (11763350_a_at) / RFU PLEKHG5 (11743358_a_at) / Fold change /veh PLEKHG5 (11743358_a_at) / RFU ZSCAN30 (11745921_a_at) / Fold change /veh ZSCAN30 (11745921_a_at) / RFU CMKLR1 (11741424_a_at) / Fold change /veh CMKLR1 (11741424_a_at) / RFU LOC101060620 /// MAPK8IP1 (11723275_at) / Fold change /veh LOC101060620 /// MAPK8IP1 (11723275_at) / RFU SPTSSB (11747773_x_at) / Fold change /veh SPTSSB (11747773_x_at) / RFU PRSS12 (11739890_at) / Fold change /veh PRSS12 (11739890_at) / RFU BIN1 (11741810_x_at) / Fold change /veh BIN1 (11741810_x_at) / RFU WNT11 (11732464_a_at) / Fold change /veh WNT11 (11732464_a_at) / RFU C10orf10 (11716521_a_at) / Fold change /veh C10orf10 (11716521_a_at) / RFU C5orf56 (11738089_at) / Fold change /veh C5orf56 (11738089_at) / RFU CYB561 (11721691_x_at) / Fold change /veh CYB561 (11721691_x_at) / RFU ANKRD19P (11752326_a_at) / Fold change /veh ANKRD19P (11752326_a_at) / RFU OR2T12 /// OR2T33 /// OR2T8 (11738714_s_at) / Fold change /veh OR2T12 /// OR2T33 /// OR2T8 (11738714_s_at) / RFU VCAN (11748164_a_at) / Fold change /veh VCAN (11748164_a_at) / RFU JSRP1 (11732532_at) / Fold change /veh JSRP1 (11732532_at) / RFU KRTAP10-11 (11738290_x_at) / Fold change /veh KRTAP10-11 (11738290_x_at) / RFU MYO3A (11730013_a_at) / Fold change /veh MYO3A (11730013_a_at) / RFU EBF3 (11725865_a_at) / Fold change /veh EBF3 (11725865_a_at) / RFU CAMK2N1 (11719241_x_at) / Fold change /veh CAMK2N1 (11719241_x_at) / RFU C5orf56 (11738088_a_at) / Fold change /veh C5orf56 (11738088_a_at) / RFU OLFML3 (11715873_a_at) / Fold change /veh OLFML3 (11715873_a_at) / RFU LOC100653217 /// NTM (11731650_a_at) / Fold change /veh LOC100653217 /// NTM (11731650_a_at) / RFU MAPK11 (11762145_a_at) / Fold change /veh MAPK11 (11762145_a_at) / RFU FIZ1 (11724087_x_at) / Fold change /veh FIZ1 (11724087_x_at) / RFU OASL (11726364_x_at) / Fold change /veh OASL (11726364_x_at) / RFU SOX15 (11748057_x_at) / Fold change /veh SOX15 (11748057_x_at) / RFU CD79A (11719716_a_at) / Fold change /veh CD79A (11719716_a_at) / RFU HIST1H1D (11736915_at) / Fold change /veh HIST1H1D (11736915_at) / RFU CASKIN2 (11723855_a_at) / Fold change /veh CASKIN2 (11723855_a_at) / RFU LOC730098 (11760151_x_at) / Fold change /veh LOC730098 (11760151_x_at) / RFU OR4N2 (11742367_at) / Fold change /veh OR4N2 (11742367_at) / RFU PRRT2 (11749266_a_at) / Fold change /veh PRRT2 (11749266_a_at) / RFU SNX32 (11753110_a_at) / Fold change /veh SNX32 (11753110_a_at) / RFU CDHR5 (11726645_a_at) / Fold change /veh CDHR5 (11726645_a_at) / RFU RCAN1 (11760418_a_at) / Fold change /veh RCAN1 (11760418_a_at) / RFU FAM167A (11723789_a_at) / Fold change /veh FAM167A (11723789_a_at) / RFU FAM26E (11764081_at) / Fold change /veh FAM26E (11764081_at) / RFU ISYNA1 (11749810_s_at) / Fold change /veh ISYNA1 (11749810_s_at) / RFU ACY1 (11761880_at) / Fold change /veh ACY1 (11761880_at) / RFU 11764098_at / Fold change /veh 11764098_at / RFU SAMD14 (11745864_x_at) / Fold change /veh SAMD14 (11745864_x_at) / RFU NPB (11741838_a_at) / Fold change /veh NPB (11741838_a_at) / RFU TMPRSS6 (11731388_a_at) / Fold change /veh TMPRSS6 (11731388_a_at) / RFU KRTAP10-2 (11738614_at) / Fold change /veh KRTAP10-2 (11738614_at) / RFU ARHGAP8 /// PRR5-ARHGAP8 (11727945_x_at) / Fold change /veh ARHGAP8 /// PRR5-ARHGAP8 (11727945_x_at) / RFU KRTAP5-7 /// NADSYN1 (11734609_at) / Fold change /veh KRTAP5-7 /// NADSYN1 (11734609_at) / RFU RASL12 (11751679_a_at) / Fold change /veh RASL12 (11751679_a_at) / RFU CDKN2B (11736163_a_at) / Fold change /veh CDKN2B (11736163_a_at) / RFU PRF1 (11729649_at) / Fold change /veh PRF1 (11729649_at) / RFU, ZNF638 /// ZNF638-IT1 / Fold change vs veh, ZNF638 /// ZNF638-IT1 / RFU, PANK3 / Fold change vs veh, PANK3 / RFU, SH3YL1 / Fold change vs veh, SH3YL1 / RFU, ZEB2 / Fold change vs veh, ZEB2 / RFU, NRIP1 / Fold change vs veh, NRIP1 / RFU, PTTG1IP / Fold change vs veh, PTTG1IP / RFU, CAPN2 / Fold change vs veh, CAPN2 / RFU, MED14 / Fold change vs veh, MED14 / RFU, SNORA58 / Fold change vs veh, SNORA58 / RFU, C1orf63 / Fold change vs veh, C1orf63 / RFU, LRRFIP1 / Fold change vs veh, LRRFIP1 / RFU, NDUFAF7 / Fold change vs veh, NDUFAF7 / RFU, SLC12A2 / Fold change vs veh, SLC12A2 / RFU, IBTK / Fold change vs veh, IBTK / RFU, ESF1 / Fold change vs veh, ESF1 / Fold change vs veh, TMEM50B / RFU, TAOK1 / Fold change vs veh, TAOK1 / RFU, ACBD3 / Fold change vs veh, ACBD3 / RFU, TMA16 / Fold change vs veh, TMA16 / RFU, RWDD3 / Fold change vs veh, RWDD3 / RFU, BCAT1 / Fold change vs veh, BCAT1 / RFU, EDEM3 / Fold change vs veh, EDEM3 / RFU, TMEM33 / Fold change vs veh, TMEM33 / RFU, WDR75 / Fold change vs veh, WDR75 / RFU, AHCTF1 / Fold change vs veh, AHCTF1 / RFU, TFRC / Fold change vs veh, TFRC / RFU, ZDHHC17 / Fold change vs veh, ZDHHC17 / RFU, NOM1 / Fold change vs veh, NOM1 / RFU, ARL8B / Fold change vs veh, ARL8B / RFU, ZBTB11 / Fold change vs veh, ZBTB11 / RFU, TAMM41 / Fold change vs veh, TAMM41 / RFU, KIAA1704 /// LOC100996395 / Fold change vs veh, KIAA1704 /// LOC100996395 / RFU, ING1 / Fold change vs veh, ING1 / RFU, TRMT61B / Fold change vs veh, TRMT61B / RFU, FUBP3 / Fold change vs veh, FUBP3 / RFU, TP53 / Fold change vs veh, TP53 / RFU, TNKS2 / Fold change vs veh, TNKS2 / RFU, ZFP14 / Fold change vs veh, ZFP14 / RFU, ACTR2 / Fold change vs veh, ACTR2 / RFU, PPP3R1 / Fold change vs veh, PPP3R1 / RFU, PIK3R1 / Fold change vs veh, PIK3R1 / RFU, HNRNPA1 / Fold change vs veh, HNRNPA1 / RFU, RNF170 / Fold change vs veh, RNF170 / RFU, ZNF28 / Fold change vs veh, ZNF28 / RFU, RNGTT / Fold change vs veh, RNGTT / RFU, OGT / Fold change vs veh, OGT / RFU, BRD1 / Fold change vs veh, BRD1 / RFU, MARS / Fold change vs veh, MARS / RFU, ZNF655 / Fold change vs veh, ZNF655 / RFU, FAHD1 / Fold change vs veh, FAHD1 / RFU, BDP1 / Fold change vs veh, BDP1 / RFU, LRRCC1 / Fold change vs veh, LRRCC1 / RFU, ARID1A / Fold change vs veh, ARID1A / RFU, ZNF146 / Fold change vs veh, ZNF146 / RFU, ZNF330 / Fold change vs veh, ZNF330 / RFU, GPN3 / Fold change vs veh, GPN3 / RFU, C9orf123 / Fold change vs veh, C9orf123 / RFU, N4BP2L2 / Fold change vs veh, N4BP2L2 / RFU, ARFIP1 / Fold change vs veh, ARFIP1 / RFU, FAM179B / Fold change vs veh, FAM179B / RFU, BCL10 / Fold change vs veh, BCL10 / RFU, UHRF1BP1L / Fold change vs veh, UHRF1BP1L / RFU, BET1 / Fold change vs veh, BET1 / RFU, CNOT2 / Fold change vs veh, CNOT2 / RFU, ZNF268 / Fold change vs veh, ZNF268 / Fold change vs veh, ZNF507 / RFU, DGCR2 / Fold change vs veh, DGCR2 / RFU, WDSUB1 / Fold change vs veh, WDSUB1 / Fold change vs veh, HSP90B1 /// MIR3652 / RFU, ADSS / Fold change vs veh, ADSS / RFU, GK / Fold change vs veh, GK / RFU, ZNF148 / Fold change vs veh, ZNF148 / RFU, TAF9 / Fold change vs veh, TAF9 / RFU, SLC1A5 / Fold change vs veh, SLC1A5 / RFU, SLMO2 / Fold change vs veh, SLMO2 / RFU, ABCC4 / Fold change vs veh, ABCC4 / RFU, LOC101060439 /// RAP1B / Fold change vs veh, LOC101060439 /// RAP1B / RFU, RFX7 / Fold change vs veh, RFX7 / RFU, GTPBP10 / Fold change vs veh, GTPBP10 / RFU, CNEP1R1 / Fold change vs veh, CNEP1R1 / RFU, BIVM-ERCC5 /// ERCC5 / Fold change vs veh, BIVM-ERCC5 /// ERCC5 / RFU, ILF3 / Fold change vs veh, ILF3 / RFU 11762660_at / Fold change /veh 11762660_at / RFU VCAN (11757783_s_at) / Fold change /veh VCAN (11757783_s_at) / RFU DDX43 (11728927_at) / Fold change /veh DDX43 (11728927_at) / RFU KRT8 (11758188_x_at) / Fold change /veh KRT8 (11758188_x_at) / RFU NKD1 (11759106_at) / Fold change /veh NKD1 (11759106_at) / RFU SRD5A1 (11742802_a_at) / Fold change /veh SRD5A1 (11742802_a_at) / RFU TPSAB1 /// TPSB2 (11721975_s_at) / Fold change /veh TPSAB1 /// TPSB2 (11721975_s_at) / RFU GSTM3 (11746129_a_at) / Fold change /veh GSTM3 (11746129_a_at) / RFU IL23R (11737362_x_at) / Fold change /veh IL23R (11737362_x_at) / RFU TMEM51 (11727254_a_at) / Fold change /veh TMEM51 (11727254_a_at) / RFU PIWIL2 (11732686_x_at) / Fold change /veh PIWIL2 (11732686_x_at) / RFU ORM1 (11744905_x_at) / Fold change /veh ORM1 (11744905_x_at) / RFU CCDC152 (11743942_at) / Fold change /veh CCDC152 (11743942_at) / RFU ECM1 (11717891_a_at) / Fold change /veh ECM1 (11717891_a_at) / RFU IL23R (11748794_a_at) / Fold change /veh IL23R (11748794_a_at) / RFU TNFAIP8L3 (11732012_x_at) / Fold change /veh TNFAIP8L3 (11732012_x_at) / RFU MBOAT4 (11741988_at) / Fold change /veh MBOAT4 (11741988_at) / RFU 11764193_at / Fold change /veh 11764193_at / RFU TMEM53 (11763286_at) / Fold change /veh TMEM53 (11763286_at) / RFU MAGEB2 (11727129_at) / Fold change /veh MAGEB2 (11727129_at) / RFU TMEM200A (11744735_a_at) / Fold change /veh TMEM200A (11744735_a_at) / RFU CCDC152 (11751479_a_at) / Fold change /veh CCDC152 (11751479_a_at) / RFU FAM211A (11726209_a_at) / Fold change /veh FAM211A (11726209_a_at) / RFU RGS16 (11746705_a_at) / Fold change /veh RGS16 (11746705_a_at) / RFU VCAN (11755009_s_at) / Fold change /veh VCAN (11755009_s_at) / RFU RHOB (11743442_s_at) / Fold change /veh RHOB (11743442_s_at) / RFU RGS16 (11720943_a_at) / Fold change /veh RGS16 (11720943_a_at) / RFU RGS16 (11720944_at) / Fold change /veh RGS16 (11720944_at) / RFU, VPS4B / Fold change vs veh, VPS4B / RFU, CREB1 / Fold change vs veh, CREB1 / RFU, DNAJC13 / Fold change vs veh, DNAJC13 / RFU, GNAQ / Fold change vs veh, GNAQ / RFU, CDK5R1 / Fold change vs veh, CDK5R1 / RFU, ZRANB3 / Fold change vs veh, ZRANB3 / RFU, CUL4A / Fold change vs veh, CUL4A / RFU, CCNY / Fold change vs veh, CCNY / RFU, UFL1 / Fold change vs veh, UFL1 / RFU, COG3 / Fold change vs veh, COG3 / RFU, DIAPH2 / Fold change vs veh, DIAPH2 / RFU, SKA2 / Fold change vs veh, SKA2 / RFU, AFF3 / Fold change vs veh, AFF3 / RFU, LMF1 / Fold change vs veh, LMF1 / RFU, IPO11 / Fold change vs veh, IPO11 / RFU, DFFB / Fold change vs veh, DFFB / RFU, FOXP1 / Fold change vs veh, FOXP1 / RFU, CARD8 / Fold change vs veh, CARD8 / RFU, STRN3 / Fold change vs veh, STRN3 / RFU, ADK / Fold change vs veh, ADK / RFU, RASSF2 / Fold change vs veh, RASSF2 / RFU, WIPF1 / Fold change vs veh, WIPF1 / RFU, LARP1B / Fold change vs veh, LARP1B / RFU, RASA1 / Fold change vs veh, RASA1 / RFU, RB1 / Fold change vs veh, RB1 / RFU, PPFIA1 / Fold change vs veh, PPFIA1 / RFU, MAT2A / Fold change vs veh, MAT2A / RFU, CCT5 / Fold change vs veh, CCT5 / RFU, WDR92 / Fold change vs veh, WDR92 / RFU, CUX1 / Fold change vs veh, CUX1 / RFU, TTC7A / Fold change vs veh, TTC7A / RFU, TMEM135 / Fold change vs veh, TMEM135 / RFU, DEPTOR / Fold change vs veh, DEPTOR / RFU, CPM / Fold change vs veh, CPM / RFU, DNAJB6 / Fold change vs veh, DNAJB6 / RFU, CACNA2D3 / Fold change vs veh, CACNA2D3 / RFU, DTX4 / Fold change vs veh, DTX4 / RFU, TFCP2 / Fold change vs veh, TFCP2 / RFU, GMCL1 /// GMCL1P1 / Fold change vs veh, GMCL1 /// GMCL1P1 / RFU, AEBP2 / Fold change vs veh, AEBP2 / RFU, SNHG1 /// SNORD22 /// SNORD25 /// SNORD26 /// SNORD27 /// SNORD28 /// SNORD29 /// SNORD31 / Fold change vs veh, SNHG1 /// SNORD22 /// SNORD25 /// SNORD26 /// SNORD27 /// SNORD28 /// SNORD29 /// SNORD31 / Fold change (Aza/veh), C12orf56 (ProbeSet 11735607_a_at) / Fold change (ACY-1035/veh), C12orf56 (ProbeSet 11735607_a_at) / Fold change (Aza/veh), FGFR1OP (ProbeSet 11751329_s_at) / Fold change (ACY-1035/veh), FGFR1OP (ProbeSet 11751329_s_at) / Fold change (Aza/veh), VPS36 (ProbeSet 11739960_a_at) / Fold change (ACY-1035/veh), VPS36 (ProbeSet 11739960_a_at) / RFU SYPL1 (11715823_x_at) / Fold change /veh SYPL1 (11715823_x_at) / RFU IGFBP7 (11715501_s_at) / Fold change /veh IGFBP7 (11715501_s_at) / RFU REEP3 (11722064_at) / Fold change /veh REEP3 (11722064_at) / RFU IGLL1 (11728026_x_at) / Fold change /veh IGLL1 (11728026_x_at): dose or concentration left out as unconfirmed
# Details: MV-4-11 cells, 48 hours
structure (smiles),measurement,value
Nc1ccc(-c2cccs2)cc1NC(=O)c1ccc2c(c1)cc(C1CC1)n2CCN1CCOCC1 [ACY-1035],RFU KRTAP10-2 (11738614_at),11.58 RFU
